In patent US20260256792A1, “TREATMENT OF CHRONIC SPONTANEOUS URTICARIA BY ADMINISTERING (R)-2-[3-[4-AMINO-3-(2-FLUORO-4-PHENOXY-PHENYL)PYRAZOLO[3,4-D]PYRIMIDIN-1-YL]PIPERIDINE-1-CARBONYL]-4-METHYL-4-[4-(OXETAN-3-YL)PIPERAZIN-1-YL]PENT-2-ENENITRILE” (priority 2023, published 2026):

Tested on: moderate-to-severe chronic spontaneous urticaria (CSU)
Assay: Phase 2 CSU study: urticaria activity score over 7 days (UAS7)
Type: in vivo, human
Conditions: Omalizumab-naïve, 400 mg TID
Text: The study comprises a 12 week, randomized, double-blind, placebo-controlled, multi-center, dose-ranging efficacy and safety phase, followed by a 40 week open label extension (OLE) phase (see FIG. 1). The study consists of three phases and an optional OLE phase. […] Clinically, CSU is characterized by the spontaneous and recurrent appearance of pruritic hives. The proposed primary endpoints were the UAS7 at Week 12 in EU and EU reference countries and the ISS7 in the US. Regardless of where a participant was from, all assessments were the same. The UAS7 score is a composite score containing both the HSS7 and the ISS7. This allowed a global assessment of the two key components of urticaria: hives and itch. […] The UAS is a validated PRO measure. […] The daily UAS scores range from 0 to 6 point/day. […] Patients were to complete the UAS using the e-diary. […] The following secondary endpoints were to be analyzed using the same approach as for the primary endpoint: • Change from baseline in UAS7 at Week 4 • Change from baseline in UAS7 at Week 12 (for US and US reference countries) • Change from baseline in ISS7 at Week 12 (except US and US reference countries) • Change from baseline in HSS7 at Week 12 The following responder secondary endpoints were to be analyzed using the Cochran-Mantel-Haenszel test adjusted by region: • Proportion of participants with UAS7<6 at Week 12 • Proportion of participants with UAS7=0 at Week 12 Participants who received selected prohibited medications and/or rescue medications were to be considered as non-responders for time points after the medication usage. For other participants, all available data including those collected during the off-treatment period were to be used to determine the responder/non-responder status. Missing data were to be considered as non-responders.

## CC(C)(C=C(C#N)C(=O)N1CCC[C@@H](n2nc(-c3ccc(Oc4ccccc4)cc3F)c3c(N)ncnc32)C1)N1CCN(C2COC2)CC1 [rilzabrutinib, (R)-2-[3-[4-amino-3-(2-fluoro-4-phenoxy-phenyl)pyrazolo[3,4-d]pyrimidin-1-yl]piperidine-1-carbonyl]-4-methyl-4-[4-(oxetan-3-yl)piperazin-1-yl]pent-2-enenitrile]
Week 3
  Imputed non-responder n (%), UAS7 = 0: 0 n (%)
  Imputed non-responder n (%), UAS7 ≤6: 0 n (%)
  Non-responder n (%), UAS7 = 0: 32 (91.4) n (%)
  Non-responder n (%), UAS7 ≤6: 27 (77.1) n (%)
  OR for rilzabrutinib vs. placebo, UAS7 = 0: 3.625
  OR for rilzabrutinib vs. placebo, UAS7 ≤6: 3.239
  RRD (%) for rilzabrutinib vs. placebo, UAS7 = 0: 5.8 %
  RRD (%) for rilzabrutinib vs. placebo, UAS7 ≤6: 13.6 %
  Responder n (%), UAS7 = 0: 3 (8.6) n (%)
  Responder n (%), UAS7 ≤6: 8 (22.9) n (%)
Week 4
  Imputed non-responder n (%), UAS7 = 0: 3 (8.6) n (%)
  Imputed non-responder n (%), UAS7 ≤6: 3 (8.6) n (%)
  Non-responder n (%), UAS7 = 0: 32 (91.4) n (%)
  Non-responder n (%), UAS7 ≤6: 30 (85.7) n (%)
  OR for rilzabrutinib vs. placebo, UAS7 = 0: 1.460
  OR for rilzabrutinib vs. placebo, UAS7 ≤6: 1.185
  RRD (%) for rilzabrutinib vs. placebo, UAS7 = 0: 2.5 %
  RRD (%) for rilzabrutinib vs. placebo, UAS7 ≤6: 1.8 %
  Responder n (%), UAS7 = 0: 3 (8.6) n (%)
  Responder n (%), UAS7 ≤6: 5 (14.3) n (%)
Week 5
  Imputed non-responder n (%), UAS7 = 0: 2 (5.7) n (%)
  Imputed non-responder n (%), UAS7 ≤6: 2 (5.7) n (%)
  Non-responder n (%), UAS7 = 0: 29 (82.9) n (%)
  Non-responder n (%), UAS7 ≤6: 25 (71.4) n (%)
  OR for rilzabrutinib vs. placebo, UAS7 = 0: 6.971
  OR for rilzabrutinib vs. placebo, UAS7 ≤6: 5.923
  RRD (%) for rilzabrutinib vs. placebo, UAS7 = 0: 13.2 %
  RRD (%) for rilzabrutinib vs. placebo, UAS7 ≤6: 19.7 %
  Responder n (%), UAS7 = 0: 6 (17.1) n (%)
  Responder n (%), UAS7 ≤6: 10 (28.6) n (%)
Week 6
  Imputed non-responder n (%), UAS7 = 0: 4 (11.4) n (%)
  Imputed non-responder n (%), UAS7 ≤6: 4 (11.4) n (%)
  Non-responder n (%), UAS7 = 0: 28 (80.0) n (%)
  Non-responder n (%), UAS7 ≤6: 27 (77.1) n (%)
  OR for rilzabrutinib vs. placebo, UAS7 = 0: 8.082
  OR for rilzabrutinib vs. placebo, UAS7 ≤6: 1.274
  RRD (%) for rilzabrutinib vs. placebo, UAS7 = 0: 15.6 %
  RRD (%) for rilzabrutinib vs. placebo, UAS7 ≤6: 3.7 %
  Responder n (%), UAS7 = 0: 7 (20.0) n (%)
  Responder n (%), UAS7 ≤6: 8 (22.9) n (%)
Week 7
  Imputed non-responder n (%), UAS7 = 0: 5 (14.3) n (%)
  Imputed non-responder n (%), UAS7 ≤6: 5 (14.3) n (%)
  Non-responder n (%), UAS7 = 0: 32 (91.4) n (%)
  Non-responder n (%), UAS7 ≤6: 26 (74.3) n (%)
  OR for rilzabrutinib vs. placebo, UAS7 = 0: 3.625
  OR for rilzabrutinib vs. placebo, UAS7 ≤6: 2.685
  RRD (%) for rilzabrutinib vs. placebo, UAS7 = 0: 5.8 %
  RRD (%) for rilzabrutinib vs. placebo, UAS7 ≤6: 13.4 %
  Responder n (%), UAS7 = 0: 3 (8.6) n (%)
  Responder n (%), UAS7 ≤6: 9 (25.7) n (%)
Week 8
  Imputed non-responder n (%), UAS7 = 0: 7 (20.0) n (%)
  Imputed non-responder n (%), UAS7 ≤6: 7 (20.0) n (%)
  Non-responder n (%), UAS7 = 0: 32 (91.4) n (%)
  Non-responder n (%), UAS7 ≤6: 26 (74.3) n (%)
  OR for rilzabrutinib vs. placebo, UAS7 = 0: 1.351
  OR for rilzabrutinib vs. placebo, UAS7 ≤6: 1.513
  RRD (%) for rilzabrutinib vs. placebo, UAS7 = 0: 1.9 %
  RRD (%) for rilzabrutinib vs. placebo, UAS7 ≤6: 6.3 %
  Responder n (%), UAS7 = 0: 3 (8.6) n (%)
  Responder n (%), UAS7 ≤6: 9 (25.7) n (%)
Week 9
  Imputed non-responder n (%), UAS7 = 0: 6 (17.1) n (%)
  Imputed non-responder n (%), UAS7 ≤6: 6 (17.1) n (%)
  Non-responder n (%), UAS7 = 0: 32 (91.4) n (%)
  Non-responder n (%), UAS7 ≤6: 24 (68.6) n (%)
  OR for rilzabrutinib vs. placebo, UAS7 = 0: 0.893
  OR for rilzabrutinib vs. placebo, UAS7 ≤6: 3.358
